According to ChEMBL document CHEMBL1152576, “E-Combretastatin and E-resveratrol structural modifications: antimicrobial and cancer cell growth inhibitory beta-E-nitrostyrenes” (Bioorg Med Chem, 2009):
Values after ≈ are worked out from the molar mass of the structure shown. Active and inactive are the calls of the source. No cut-off for these calls is given here.

Legend:
[1] = system: P388; assay: Cytotoxicity against mouse P388 cells after 48 hrs by sulforhodamine B assay; format: functional
[2] = system: BXPC-3; assay: Cytotoxicity against human BxPC3 cells after 48 hrs by sulforhodamine B assay; format: functional
[3] = system: MCF7; assay: Cytotoxicity against human MCF7 cells after 48 hrs by sulforhodamine B assay; format: functional
[4] = system: SF-295; assay: Cytotoxicity against human SF295 cells after 48 hrs by sulforhodamine B assay; format: functional
[5] = system: SF-268; assay: Cytotoxicity against human SF268 cells after 48 hrs by sulforhodamine B assay; format: functional
[6] = system: NCI-H460; assay: Cytotoxicity against human NCI-H460 cells after 48 hrs by sulforhodamine B assay; format: functional
[7] = system: KM-20L2; assay: Cytotoxicity against human KM20L2 cells after 48 hrs by sulforhodamine B assay; format: functional
[8] = system: DU-145; assay: Cytotoxicity against human DU145 cells after 48 hrs by sulforhodamine B assay; format: functional
[9] = system: SK-MEL-5; assay: Cytotoxicity against human SK-MEL-5 cells after 48 hrs by sulforhodamine B assay; format: functional
[10] = system: OVCAR-3; assay: Cytotoxicity against human OVCAR-3 cells after 48 hrs by sulforhodamine B assay; format: functional
[11] = system: A498; assay: Cytotoxicity against human A498 cells after 48 hrs by sulforhodamine B assay; format: functional
[12] = Inhibition of tubulin polymerization
[13] = system: Candida albicans; assay: Antimicrobial activity against Candida albicans ATCC 90028 assessed clear zone in inhibition per disk by CLSI disk diffusion susceptibility assay; format: functional
[14] = system: Cryptococcus neoformans; assay: Antimicrobial activity against Cryptococcus neoformans ATCC 90112 assessed clear zone in inhibition per disk by CLSI disk diffusion susceptibility assay; format: functional
[15] = system: Staphylococcus aureus; assay: Antimicrobial activity against Staphylococcus aureus ATCC 29213 assessed clear zone in inhibition per disk by CLSI disk diffusion susceptibility assay; format: functional
[16] = system: Streptococcus pneumoniae; assay: Antimicrobial activity against Streptococcus pneumoniae ATCC 6303 assessed clear zone in inhibition per disk by CLSI disk diffusion susceptibility assay; format: functional
[17] = system: Enterococcus faecalis; assay: Antimicrobial activity against Enterococcus faecalis ATCC 29212 assessed clear zone in inhibition per disk by CLSI disk diffusion susceptibility assay; format: functional
[18] = system: Micrococcus luteus; assay: Antimicrobial activity against Micrococcus luteus Presque Isle 456 assessed clear zone in inhibition per disk by CLSI disk diffusion susceptibility assay; format: functional
[19] = system: Stenotrophomonas maltophilia; assay: Antimicrobial activity against Stenotrophomonas maltophilia ATCC 13637 assessed clear zone in inhibition per disk by CLSI disk diffusion susceptibility assay; format: functional
[20] = system: Escherichia coli; assay: Antimicrobial activity against Escherichia coli ATCC 25922 assessed clear zone in inhibition per disk by CLSI disk diffusion susceptibility assay; format: functional
[21] = system: Enterobacter cloacae; assay: Antimicrobial activity against Enterobacter cloacae ATCC 13047 assessed clear zone in inhibition per disk by CLSI disk diffusion susceptibility assay; format: functional
[22] = system: Neisseria gonorrhoeae; assay: Antimicrobial activity against Neisseria gonorrhoeae ATCC 49226 assessed clear zone of inhibition measured per disk by CLSI disk diffusion susceptibility assay; format: functional
[23] = system: Candida albicans; assay: Antifungal activity against Candida albicans ATCC 90028 after 48 hrs by broth microdilution susceptibility assay; format: functional; conditions: ATCC 90028, 48 h
[24] = system: Cryptococcus neoformans; assay: Antifungal activity against Cryptococcus neoformans ATCC 90112 after 72 hrs by broth microdilution susceptibility assay; format: functional; conditions: ATCC 90112, 72 h
[25] = system: Staphylococcus aureus; assay: Antimicrobial activity against Staphylococcus aureus ATCC 29213 by broth microdilution susceptibility assay; format: functional
[26] = system: Streptococcus pneumoniae; assay: Antimicrobial activity against Streptococcus pneumoniae ATCC 6303 by broth microdilution susceptibility assay; format: functional
[27] = system: Enterococcus faecalis; assay: Antimicrobial activity against Enterococcus faecalis ATCC 29212 by broth microdilution susceptibility assay; format: functional
[28] = system: Micrococcus luteus; assay: Antimicrobial activity against Micrococcus luteus Presque Isle 456 by broth microdilution susceptibility assay; format: functional
[29] = system: Stenotrophomonas maltophilia; assay: Antimicrobial activity against Stenotrophomonas maltophilia ATCC 13637 by broth microdilution susceptibility assay; format: functional
[30] = system: Escherichia coli; assay: Antimicrobial activity against Escherichia coli ATCC 25922 by broth microdilution susceptibility assay; format: functional
[31] = system: Enterobacter cloacae; assay: Antimicrobial activity against Enterobacter cloacae ATCC 13047 by broth microdilution susceptibility assay; format: functional
[32] = system: Neisseria gonorrhoeae; assay: Antimicrobial activity against Neisseria gonorrhoeae ATCC 49226 by broth microdilution susceptibility assay; format: functional
[33] = system: Candida albicans; assay: Antifungal activity against Candida albicans ATCC 90028 after 24 hrs by broth microdilution susceptibility assay; format: functional; conditions: ATCC 90028, 24 h
[34] = system: Cryptococcus neoformans; assay: Antifungal activity against Cryptococcus neoformans ATCC 90112 after 48 hrs by broth microdilution susceptibility assay; format: functional; conditions: ATCC 90112, 48 h
[35] = system: Streptococcus pneumoniae; assay: Antimicrobial activity against Streptococcus pneumoniae ATCC 6303 after 24 hrs by broth microdilution susceptibility assay; format: functional; conditions: ATCC 6303, 24 h
[36] = system: Neisseria gonorrhoeae; assay: Antimicrobial activity against Neisseria gonorrhoeae ATCC 49226 after 24 hrs by broth microdilution susceptibility assay; format: functional; conditions: ATCC 49226, 24 h

COc1cc(/C=C/[N+](=O)[O-])cc(OC)c1
EC50 ([1]; P388, 48 h, read-out: ED50 (the source's name)): 0.24 µg/mL (≈ 1.15 µM)
GI50 ([2]; BXPC-3, 48 h): 1.6 µg/mL (≈ 7.65 µM)
GI50 ([3]; MCF7, 48 h): 1.8 µg/mL (≈ 8.6 µM)
GI50 [4]: inactive
GI50 ([5]; SF-268, 48 h): 2.3 µg/mL (≈ 11 µM)
GI50 ([6]; NCI-H460, 48 h): 2 µg/mL (≈ 9.56 µM)
GI50 ([7]; KM-20L2, 48 h): 1.5 µg/mL (≈ 7.17 µM)
GI50 ([8]; DU-145, 48 h): 1.5 µg/mL (≈ 7.17 µM)
GI50 [9]: inactive
GI50 [10]: inactive
GI50 [11]: inactive
IC50 [12]: 3.9 µM
MIC [13]: 3.12 µg
MIC [14]: 0.78 µg
MIC [15]: 6.25 µg
MIC [16]: >100 µg
MIC [17]: 12.5 µg
MIC [18]: 25 µg
MIC [19]: >100 µg
MIC [20]: >100 µg
MIC [21]: >100 µg
MIC [22]: 0.78 µg
MIC [23]: 16 µg/mL (≈ 76.5 µM)
MIC [24]: 16 µg/mL (≈ 76.5 µM)
MIC [25]: > 64 µg/mL
MIC [26]: 64 µg/mL (≈ 306 µM)
MIC [27]: > 64 µg/mL
MIC [28]: > 64 µg/mL
MIC [29]: > 64 µg/mL
MIC [30]: > 64 µg/mL
MIC [31]: > 64 µg/mL
MIC [32]: 2 µg/mL (≈ 9.56 µM)
MFC [33]: 16 µg/mL (≈ 76.5 µM)
MFC [34]: 16 µg/mL (≈ 76.5 µM)
MBC [35]: > 64 µg/mL
MBC [36]: 2 µg/mL (≈ 9.56 µM)

COc1ccc(/C=C/[N+](=O)[O-])cc1O
ED50 [1]: inactive
GI50 [2]: inactive
GI50 [3]: inactive
GI50 [4]: inactive
GI50 [5]: inactive
GI50 [6]: inactive
GI50 [7]: inactive
GI50 [8]: inactive
GI50 [9]: inactive
GI50 [10]: inactive
GI50 [11]: inactive
IC50 [12]: 8.2 µM
MIC [13]: 3.12 µg
MIC [14]: 0.78 µg
MIC [15]: 50 µg
MIC [16]: 1.56 µg
MIC [17]: >100 µg
MIC [18]: >100 µg
MIC [19]: 25 µg
MIC [20]: 25 µg
MIC [21]: 25 µg
MIC [22]: <0.78 µg
MIC [23]: 16 µg/mL (≈ 82 µM)
MIC [24]: 32 µg/mL (≈ 164 µM)
MIC [25]: > 64 µg/mL
MIC [26]: 64 µg/mL (≈ 328 µM)
MIC [27]: > 64 µg/mL
MIC [28]: > 64 µg/mL
MIC [29]: > 64 µg/mL
MIC [30]: > 64 µg/mL
MIC [31]: > 64 µg/mL
MIC [32]: 4 µg/mL (≈ 20.5 µM)
MFC [33]: 32 µg/mL (≈ 164 µM)
MFC [34]: 32 µg/mL (≈ 164 µM)
MBC [35]: > 64 µg/mL
MBC [36]: 4 µg/mL (≈ 20.5 µM)
